Experimental data as given in US20220127297A1, “Novel Antibacterial 3"-Derivatives Of 4,6-Disubstituted 2,5-Dideoxystreptamine Aminoglycoside Antibiotics” (AGILeBiotics B.V., priority 2018, published 2022).
Values after ≈ are worked out from the molar mass of the structure shown.

Test system: Enterobacter cloacae 3MRGN (clinical bronchial aspirate isolate)
Assay: MIC 50, broth micro-dilution, clinical isolate
Assay type: cell-based
Settings: E. Cloacae clinical isolate
Description: 3.2 Against Selected Bacteria of the ESKAPE Panel and Enterococcus faecalis (DSM Strains)
Tested reference compounds. Amikacin sulfate (Cat. No. 01693, Chem-Impex), Gentamicin sulfate (Cat. No. G4918, Sigma Aldrich).
Microbial strains. Enterococcus faecalis DSM 2570, Klebsiella pneumoniae DSM 26371, Acinetobacter baumannii DSM 105126, Enterobacter cloacae 3MRGN (clinical bronchial aspirate isolate).
Culture media and equipment. BBL™ Mueller Hinton Broth 2 (Lot. BCBW1143, Cat. No. 70192, Sigma); Trypcase Soy Blood-agar plates (Cat. No. 43001, Biomérieux); Cryoinstant (contains 15% glycerol; Cat. No. 822070ZA, VWR International); GasPak™ EZ Standard Incubation Container (Cat. No. 260671, Becton Dickinson); GasPak™ EZ Campy Container System Sachets (Cat. No. 260680, Becton Dickinson); 96-well deep well plate, 1 mL (Cat. No. 0030506.200, Eppendorf); Plate lid (Cat. No. 0030131.525, Eppendorf); 96-well plate, F-bottom (Cat. No. 260860, Nunc); Incubator (Sartorius Certomat BS-1); Laminar flow (Heraeus HS12); UV/VIS meter (Perkin Elmer Lambda Bio+); Platereader (Tecan Infinite M200 Pro).
Compound preparation. Compounds were prepared in MH2 media at a concentration of 5 mM and stored at 4° C. For testing, solutions of 128 μM were prepared in MH2, for tests against E. faecalis a solution of 512 μM was prepared. Out of these working solutions, 400 μL was transferred to wells in the first column of 96-well deep well plates. Each compound was transferred in triplicate. Plates were previously filled with 200 μL of MH2 media in all wells except for the wells in the first column. After compound and antibiotic addition, the compounds were serial two-fold diluted by transferring 200 μL from the first to the second column, then from the second to the third column and so on. Finally, 200 μL was removed from the last column.
Inoculum preparation. Microorganisms used were all revived from 15% glycerol storage in Croinstant tubes at −28° C. by plating them on blood agar plates. A. baumanni, and E. cloacae were grown aerobically at 37° C., E. faecalis was grown microaerophilically at 37° C., and K. pneumoniae was grown aerobically at 37° C. Plates were stored at 4° C. for up to two weeks, after which new plates were prepared from −28° C. A single colony was inoculated in MH2 media and grown at 37° C. and 200 rpm to an optical density (measured by UV/Vis spectroscopy) of 0.6-0.8 at 600 nm. Out of these suspensions, actual inoculums were prepared by diluting them to an optical density of 0.1 in MH2 media. From these inoculums, 200 μL was transferred to each well, resulting in a final compound concentration range of 64 μM-31.3 nM for, K. pneumoniae, A. baumanni, and E. cloacae, and 256 μM-125 nM for E. faecalis. Plates inoculated with E. faecalis were placed inside a GasPak™ Container System with GasPak™ Campy Container System sachets. All plates were incubated at 200 rpm for 18 h under the microorganism culturing conditions mentioned above.
MIC determination. After 18 h of growth, 200 μL was transferred to a 96-well F-bottom plate. The optical density was determined by a plate reader at 600 nm, with 10 s shaking before reading. Triplicate measurements were averaged, and a growth curve was plotted in Excel. The first column in which the growth reached half the value of maximum growth was determined as the MIC50 value for that particular compound.
MIC50. The MIC50 of a compound was assigned at which the bacterial growth reached half the value of maximum growth.

SMILES | MIC50 [µM]
NCC[C@H](O)C(=O)N[C@@H]1CC(N)[C@@H](O[C@H]2OC(CN)[C@@H](O)CC2N)[C@H](O)C1OC1O[C@H](CO)[C@@H](O)C(N)[C@H]1O (stereo partly drawn) [ABX5004, Tobra-AHB] | 1 (≈ 0.569 µg/mL)
NCCC(O)C(=O)NC1CC(N)C(OC2OC(CN)C(O)C(O)C2N)C(F)C1OC1OC(CO)C(O)C(N)C1O (stereo not drawn) [ABX4007, KanaB-AHB-F] | 1 to 2

Same assay, conditions: Enterobacter cloacae, E. Cloacae clinical isolate; read-out: MIC 50

SMILES | MIC50 [µM]
N=C(NCc1ccncc1)NC1[C@@H](O)C(OC2[C@@H](F)[C@H](O[C@H]3OC(CN)[C@@H](O)CC3N)C(N)C[C@H]2NC(=O)[C@@H](O)CCN)O[C@H](CO)[C@H]1O (stereo partly drawn) [ABX5048, Tobra-AHB-F-Gua pyridin-4-yl methyl] | 1 (≈ 0.704 µg/mL)
N=C(N)NC1[C@@H](O)C(OC2[C@@H](F)[C@H](O[C@H]3OC(CN)[C@@H](O)[C@H](O)C3O)C(N)C[C@H]2NC(=O)[C@@H](O)CCN)O[C@H](CO)[C@H]1O (stereo partly drawn) [ABX3003, 3′epi-KanaA-AHB-F-Gua] | 1 to 2 (≈ 0.63 to 1.26 µg/mL)
NCC[C@H](O)C(=O)N[C@@H]1C[C@H](N)[C@@H](O[C@H]2O[C@H](CN)[C@@H](O)[C@H](O)[C@H]2O)[C@H](O)[C@H]1O[C@H]1O[C@H](CO)[C@@H](O)[C@H](N)[C@H]1O [Amikacin, amikacin, reference compound] | 2 (≈ 1.17 µg/mL)
N=C(N)NC1[C@@H](O)C(OC2[C@@H](F)[C@H](O[C@H]3OC(CNCCO)[C@@H](O)CC3N)C(N)C[C@H]2NC(=O)[C@@H](O)CCN)O[C@H](CO)[C@H]1O (stereo partly drawn) [ABX5045, 6N-2-hydroxy-ethyl-Tobra-AHB-F-Gua] | 1 (≈ 0.657 µg/mL)
